Laboratory results taken from US20210292410A1, “TREATMENT PARADIGM FOR AN ANTI-CD19 ANTIBODY AND VENETOCLAX COMBINATION TREATMENT” (MorphoSys AG, priority 2017, published 2021).

What was measured:
CYP17 [1] = test: Endocrine panel in prostate cancer patients treated with seviteronel or seviteronel and dexamethasone; type: in vivo, human; conditions: seviteronel 600 mg once daily, FIG. 7
Protocol: (§1) Males that fulfill the Inclusion Criteria captured in Table 1 were administered seviteronel (600 mg; 4×150 mg tablets) once daily until any of the criteria in Table 2 are met. Table 3 captures the clinical screening data and screening schedule for the various screens for each of the male subjects.
as §1, with “tablets) and dexamethasone (0.5 mg)” for “tablets)”
(§2) Blood samples were collected for evaluation of steroid hormone changes as a pharmacodynamics indicator of CYP17 inhibition over time (e.g., DHEA, DHEA-S, androstenedione, testosterone, cortisol, corticosterone, progesterone, pregnenolone, estradiol, estrone and ACTH).

CYP17 [2] = test: Endocrine panel (progesterone) in ER+ breast cancer patients; type: in vivo, human; conditions: vs. patients treated with abiraterone and prednisone (Abi/Pred), FIG. 20
Protocol: as §1, with “Subjects” for “Males”, “4” for “1”, “mg for male subjects,” for “mg;”, “4×150 mg tablets; 450 mg for female subjects, 3×150” for “4×150”, “5” for “3”
Subjects that fulfill the Inclusion Criteria captured in Table 4 were administered seviteronel (600 mg for male subjects, 4×150 mg tablets; 450 mg for female subjects, 3×150 mg tablets) and dexamethasone (0.5 mg) once daily until any of the criteria in Table 2 are met. Table 5 captures the clinical screening data and screening schedule for the various screens for each of the male subjects.
as §2

CC(C)[C@](O)(c1ccc2cc(OC(F)F)c(OC(F)F)cc2c1)c1c[nH]nn1 [SEVI]
endocrine profile: "up-stream" steroids (CYP17 [1]): limited increase
endocrine profile: ACTH (CYP17 [1]): modest ACTH increase
endocrine profile: androgen (CYP17 [1]): modest androgen decline
endocrine profile: cortisol (CYP17 [1]): modest cortisol decrease
increase in progesterone (CYP17 [2]): lack of clinically relevant increases in progesterone
